Data reported in US20080287445A1, “Prokineticin 2 receptor antagonists” (priority 2005, published 2008).
Values joined by “and” are separate entries in the source; they are usually repeats but may differ in a detail not shown here. Equal values may be shown once.

Biological target: T1, GPR73 (prokineticin 1 receptor) (Homo sapiens, UniProt Q8TCW9)
T1 construct: expressed in transfected cells; host or cells: HEK 293
Assay: PK1 functional assay: Ca2+ mobilization screening for PK1 antagonists on the FLIPR
Type: cell-based
Conditions: HEK 293 GPR73 cells, multiple values = multiple testing; for Ca^2+ Mobilization % Inh @ 10 μM: 10 μM compound; for inhibition at 10 µM: HEK293, 10 μM compound, read-out: Ca^2+ Mobilization % Inh @ 10 μM; for IC50: PK1 ligand preparation at its EC50, read-out: Ca^2+ Mobilization IC50
Protocol: At a time of 24 h prior to running the assay, in cell culture media (DMEM containing high Glucose and L-glutamine, 10% FBS, 1% Pen/Streptomycin, 1% Sodium Pyruvate, 20 mM HEPES, Zeocin 200 mg/L), 100 μL of 1.3*10^6/ml HEK 293 GPR73 (prokineticin 1 receptor) expressing cells were plated in a 96 well poly-d-lysine coated plate (Costar), and incubated at 37 C and 5% CO2. On the day in which the assay was run, the media was removed and 200 μL of 5× Calcium Plus Dye (Molecular Devices) which was previously resuspended with 200 mL of assay buffer [HBSS w/Ca^2+ and Mg^2+ w/o phenol red, 20 mM HEPES, 0.1% BSA, 10 mL probenecid (710 mg probenecid in 5 mL of 1N NaOH, to which was then added 5 mL HBSS containing 20 mM HEPES)] was added to each well of the 96-well plate. The plate was incubated at 37 C and 5% CO2 for 30 min in dark. The plate was removed and allowed to reach RT for 15 min in the dark. The assay was then run on the FLIPR. In Brief: base line read for 1 min, compound added (25 μL) and incubated for 4 min, 15 seconds, PK1 ligand preparation added (25 μL) for a final concentration of a previously determined EC50 and fluorescence was counted for 1 min, 45 seconds. Baseline is described as the amount of relative fluorescence read when buffer alone is added to cells. Baseline was subtracted from all wells. Percent of control was calculated as follows:
(Baseline subtracted well value is divided by baseline subtracted max value)*100. Percent inhibition is 100 minus the percent of control value.
The IC50 is defined as the amount of a given compound required to inhibit 50% of the maximum signal that is generated by the concentration of PK1 preparation used in our assay. IC50 values were calculated using GraphPad Prism.

T1 sequence (Q8TCW9 whole entry, species assumed): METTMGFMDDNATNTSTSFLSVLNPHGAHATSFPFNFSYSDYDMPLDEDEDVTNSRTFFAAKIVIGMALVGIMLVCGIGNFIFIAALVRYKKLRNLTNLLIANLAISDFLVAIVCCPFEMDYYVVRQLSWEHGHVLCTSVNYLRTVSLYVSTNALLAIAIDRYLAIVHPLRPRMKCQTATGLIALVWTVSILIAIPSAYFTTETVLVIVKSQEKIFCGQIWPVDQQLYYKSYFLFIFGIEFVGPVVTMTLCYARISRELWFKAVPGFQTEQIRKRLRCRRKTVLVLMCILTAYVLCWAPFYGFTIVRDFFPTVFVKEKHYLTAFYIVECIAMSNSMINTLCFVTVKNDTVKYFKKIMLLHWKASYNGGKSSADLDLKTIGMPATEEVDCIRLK

COCCNc1ncccc1CNc1nc(=O)n(Cc2ccc(OC)cc2)c(=O)n1Cc1ccc(OC)cc1 [Cpd 50]
Ca^2+ Mobilization % Inh @ 10 μM: 100% | inhibition at 10 µM: 91% | IC50: 24 nM and 72 nM

COc1ccc(Cn2c(NCc3cccnc3NCCN(C)C)nc(=O)n(Cc3ccc(OC)cc3)c2=O)cc1 [Cpd 51]
inhibition at 10 µM: 93% | IC50: 207 nM

COc1ccc(Cn2c(=O)nc(NCc3cccnc3N)n(Cc3ccc(C(N)=O)cc3)c2=O)cc1 [Cpd 52]
inhibition at 10 µM: 94% | IC50: 973 nM

COc1ccc(Cn2c(NCc3ccc[n+]([O-])c3)nc(=O)n(Cc3ccc(OC)cc3)c2=O)cc1 [Cpd 53]
inhibition at 10 µM: 45% | IC50: > 10000 nM

COc1ccc(Cn2c(NCc3cccnc3N)nc(=O)n(Cc3ccc(O)cc3)c2=O)cc1 [Cpd 54, 6-[(2-Amino-pyridin-3-ylmethyl)-amino]-3-(4-hydroxy-benzyl)-1-(4-methoxy-benzyl)-1H-[1,3,5]triazine-2,4-dione]
Ca^2+ Mobilization % Inh @ 10 μM: 42% and 64% | IC50: 3470 nM and > 10000 nM

COc1ccc(Cn2c(NCc3cccnc3N)nc(=O)n(Cc3cccc(F)c3)c2=O)cc1 [Cpd 55]
inhibition at 10 µM: 44% | IC50: > 10000 nM

COC(=O)c1ccc(Cn2c(=O)nc(NCc3cccnc3N)n(Cc3ccc(OC)cc3)c2=O)cc1 [Cpd 56]
inhibition at 10 µM: 47% | IC50: > 10000 nM

COc1ccc(Cn2c(NCc3cc(-c4ccccc4)cnc3N)nc(=O)n(Cc3ccc(OC)cc3)c2=O)cc1 [Cpd 57]
inhibition at 10 µM: 59% | IC50: 4770 nM

COc1ccc(Cn2c(NCc3c(OC)ccnc3N)nc(=O)n(Cc3ccc(OC)cc3)c2=O)cc1 [Cpd 58]
inhibition at 10 µM: 95% | IC50: 89 nM

COc1ccc(Cn2c(NCc3ccc(C)nc3)nc(=O)n(Cc3ccc(OC)cc3)c2=O)cc1 [Cpd 59]
inhibition at 10 µM: 94% | IC50: 178 nM

COc1ccc(Cn2c(NCc3cnc(C)cc3C)nc(=O)n(Cc3ccc(F)cc3)c2=O)cc1 [Cpd 60]
inhibition at 10 µM: 88% | IC50: 350 nM

COc1ccc(Cn2c(NCc3cnc(C)cc3C)cc(=O)n(Cc3ccc(OC)cc3)c2=O)cc1 [Cpd 61]
Ca^2+ Mobilization % Inh @ 10 μM: 101% | inhibition at 10 µM: 87%

COc1ccc(Cn2c(NCc3cc(C)ccn3)nc(=O)n(Cc3ccc(OC)cc3)c2=O)cc1 [Cpd 62]
inhibition at 10 µM: 52% | IC50: 2030 nM

CCc1ccc(Cn2c(NCc3cccnc3N)nc(=O)n(Cc3ccc(OC)cc3)c2=O)cc1 [Cpd 63]
inhibition at 10 µM: 83% | IC50: 271 nM

COc1ccc(Cn2c(NCc3cccc(C(F)(F)F)n3)nc(=O)n(Cc3ccc(OC)cc3)c2=O)cc1 [Cpd 64]
Ca^2+ Mobilization % Inh @ 10 μM: 51% | inhibition at 10 µM: 50% | IC50: 5260 nM and 8510 nM

COc1ccc(Cn2c(NCc3ncccc3C)nc(=O)n(Cc3ccc(OC)cc3)c2=O)cc1 [Cpd 65]
IC50: > 10000 nM

COc1ccc(Cn2c(NCc3cccnc3NCCSC)nc(=O)n(Cc3ccc(OC)cc3)c2=O)cc1 [Cpd 66]
inhibition at 10 µM: 92% | IC50: 401 nM

COc1ccc(Cn2c(NCc3cccnc3NCCC(C)C)nc(=O)n(Cc3ccc(OC)cc3)c2=O)cc1 [Cpd 67]
inhibition at 10 µM: 55% | IC50: 4820 nM

COc1ccc(Cn2c(NCc3cccnc3NCC3CCCO3)nc(=O)n(Cc3ccc(OC)cc3)c2=O)cc1 (centres unmarked) [Cpd 68]
inhibition at 10 µM: 95% | IC50: 217 nM

COc1ccc(Cn2c(NCc3cccnc3NCc3ccco3)nc(=O)n(Cc3ccc(OC)cc3)c2=O)cc1 [Cpd 69]
inhibition at 10 µM: 93% | IC50: 337 nM

CCN1CCCC1CNc1ncccc1CNc1nc(=O)n(Cc2ccc(OC)cc2)c(=O)n1Cc1ccc(OC)cc1 (centres unmarked) [Cpd 70]
inhibition at 10 µM: 94% | IC50: 560 nM

COCCNc1ncccc1CNc1nc(=O)n(CCc2ccccc2)c(=O)n1Cc1ccc(OC)cc1 [Cpd 71]
inhibition at 10 µM: 38% | IC50: > 10000 nM

COCCNc1ncccc1CNc1nc(=O)n(CCOc2ccccc2)c(=O)n1Cc1ccc(OC)cc1 [Cpd 72]
inhibition at 10 µM: 81% | IC50: 1170 nM

COCCNc1ncccc1CNc1nc(=O)n(CC2COc3ccccc3O2)c(=O)n1Cc1ccc(OC)cc1 (centres unmarked) [Cpd 73]
inhibition at 10 µM: 58% | IC50: 5930 nM

COCCNc1ncccc1CNc1nc(=O)n(CCc2ccc([N+](=O)[O-])cc2)c(=O)n1Cc1ccc(OC)cc1 [Cpd 74]
inhibition at 10 µM: 54% | IC50: 7460 nM

COc1ccc(Cn2c(=O)nc(NCc3cccnc3N)n(Cc3ccc(SC)cc3)c2=O)cc1 [Cpd 75]
inhibition at 10 µM: 99% | IC50: 131 nM

COc1ccc(Cn2c(=O)nc(NCc3cccnc3N)n(Cc3ccncc3)c2=O)cc1 [Cpd 76]
inhibition at 10 µM: 67% | IC50: 1460 nM

COc1ccc(Cn2c(=O)nc(NCc3cccnc3N)n(Cc3cc4ccccc4o3)c2=O)cc1 [Cpd 77]
inhibition at 10 µM: 91% | IC50: 449 nM

COCCCCCn1c(NCc2cccnc2N)nc(=O)n(Cc2ccc(OC)cc2)c1=O [Cpd 78, 6-[(2-Amino-pyridin-3-ylmethyl)-amino]-3-(4-methoxy-benzyl)-1-(5-methoxy-pentyl)-1H-[1,3,5]triazine-2,4-dione]
Ca^2+ Mobilization % Inh @ 10 μM: 95% | inhibition at 10 µM: 94% | IC50: 36 nM and 113 nM

CCCCCCn1c(NCc2cccnc2N)nc(=O)n(Cc2ccc(OC)cc2)c1=O [Cpd 79]
inhibition at 10 µM: 85% | IC50: 679 nM

COc1ccc(Cn2c(=O)nc(NCc3cccnc3N)n(Cc3cccc(OC)c3)c2=O)cc1 [Cpd 80]
inhibition at 10 µM: 70% | IC50: 2030 nM

COc1ccc(Cn2c(=O)nc(NCc3cccnc3N)n(Cc3cccc(C#N)c3)c2=O)cc1 [Cpd 81]
inhibition at 10 µM: 36% | IC50: > 10000 nM

COc1ccc(Cn2c(=O)nc(NCc3cccnc3N)n(Cc3cccc([N+](=O)[O-])c3)c2=O)cc1 [Cpd 82]
inhibition at 10 µM: 38% | IC50: > 10000 nM

COc1ccc(Cn2c(NCc3cnc(C)cc3C)nc(=O)n(Cc3ccc(OC(F)F)cc3)c2=O)cc1 [Cpd 83]
inhibition at 10 µM: 82% | IC50: 668 nM

COc1ccc(Cn2c(NCc3cccnc3N)nc(=O)n(Cc3ccc(OC(F)F)cc3)c2=O)cc1 [Cpd 84]
inhibition at 10 µM: 70% | IC50: 1220 nM

CCc1ccccc1Cn1c(NCc2cccnc2N)nc(=O)n(Cc2ccc(OC)cc2)c1=O [Cpd 86]
inhibition at 10 µM: 31% | IC50: > 10000 nM

COc1ccc(Cn2c(=O)nc(NCc3cccnc3N)n(Cc3ccccc3OC(F)(F)F)c2=O)cc1 [Cpd 87]
inhibition at 10 µM: 53% | IC50: > 10000 nM

COc1ccc(Cn2c(=O)nc(NCc3cccnc3N)n(Cc3ccccc3C#N)c2=O)cc1 [Cpd 88]
inhibition at 10 µM: 41% | IC50: > 10000 nM

COc1ccc(Cn2c(NCc3cccnc3N)nc(=O)n(Cc3ccc(I)cc3)c2=O)cc1 [Cpd 89]
inhibition at 10 µM: 82% | IC50: 817 nM

COc1ccc(Cn2c(NCc3cccnc3N)nc(=O)n(Cc3ccc(-n4cccn4)cc3)c2=O)cc1 [Cpd 90]
inhibition at 10 µM: 71% | IC50: 2330 nM

Nc1ncccc1CNc1nc(=O)n(Cc2ccc(F)cc2)c(=O)n1Cc1ccc(OC(F)(F)F)cc1 [Cpd 91]
inhibition at 10 µM: 59% | IC50: 3980 nM

COc1ccc(Cn2c(=O)nc(NCc3cccnc3N)n(Cc3ccccc3OC)c2=O)cc1 [Cpd 92]
inhibition at 10 µM: 58% | IC50: 5160 nM

COC(=O)c1cccc(Cn2c(NCc3cccnc3N)nc(=O)n(Cc3ccc(OC)cc3)c2=O)c1 [Cpd 93]
inhibition at 10 µM: 96% | IC50: 116 nM

COc1ccc(CCn2c(NCc3cccnc3N)nc(=O)n(Cc3ccc(OC)cc3)c2=O)cc1 [Cpd 94]
inhibition at 10 µM: 91% | IC50: 373 nM

COc1ccc(Cn2c(=O)nc(NCc3cccnc3N)n(Cc3ccc(OC)nc3)c2=O)cc1 [Cpd 95]
inhibition at 10 µM: 92% | IC50: 84 nM

COc1ccc(Cn2c(=O)nc(NCc3cnc(C)cc3C)n(Cc3ccc(OC(F)F)cc3)c2=O)cc1 [Cpd 96]
IC50: 273 nM

COc1ccc(Cn2c(NCc3c(C)cc(C)nc3N)nc(=O)n(Cc3ccc(OC)cc3)c2=O)cc1 [Cpd 97, 6-[(2-Amino-4,6-dimethyl-pyridin-3-ylmethyl)-amino]-1,3-bis-(4-methoxy-benzyl)-1H-[1,3,5]triazine-2,4-dione]
Ca^2+ Mobilization % Inh @ 10 μM: 96% and 98% | inhibition at 10 µM: 90% | IC50: 6 nM and 7 nM and 19 nM

COc1ccc(Cn2c(=O)nc(NCc3cccnc3N)n(Cc3cccc(OC(F)(F)F)c3)c2=O)cc1 [Cpd 98]
inhibition at 10 µM: 77% | IC50: 736 nM

COc1ccc(Cn2c(=O)nc(NCc3cnc(C)cc3C)n(Cc3cccc(OC(F)(F)F)c3)c2=O)cc1 [Cpd 99]
inhibition at 10 µM: 91% | IC50: 100 nM

COc1ccc(Cn2c(=O)nc(NCc3cnc(C)cc3C)n(Cc3ccc(SC)cc3)c2=O)cc1 [Cpd 100]
inhibition at 10 µM: 62% | IC50: 533 nM

COc1ccc(Cn2c(=O)nc(NCc3cnc(C)cc3C)n(Cc3ccncc3)c2=O)cc1 [Cpd 101]
inhibition at 10 µM: 60% | IC50: 3300 nM
